Test results published in publication PMC6733504, “Effects of flavoring compounds used in electronic cigarette refill liquids on endothelial and vascular function” (PLoS ONE, 2019).

What was measured:
endothelial cells [1] = test: LDH release (membrane integrity); settings: 1 mM, 60 minutes; maximum = 1% Triton
Description: To test for membrane integrity, endothelial cells were assayed for release of lactate dehydrogenase (LDH) into the culture medium. Subsequent to incubation with flavoring compounds (1 mM each) for 1 hour, 20-μl aliquots of the culture media were mixed with 200 μl of reagent buffer (1 mM pyruvate and 0.1 mM NAD^+ in PBS). The decrease in light absorbance at 340 nm was monitored using a diode array spectrophotometer (Hewlett Packard 8452A). Maximum LDH release was determined by treating the cells with 1% Triton X-100.

[2] = target: T1, soluble guanylate cyclase (sGC) (Bos taurus, UniProt P16068+P19687); test: Activity of purified sGC stimulated with DEA/NO; format: biochemical, bovine; settings: for Emax of DEA/NO-stimulated sGC activity in presence of flavoring: flavoring 1 mM, DEA/NO 0.01–10 μM
T1 construct: The activity of sGC purified from bovine lung; from tissue; host or cells: bovine lung
T1 sequence (P19687 1-691): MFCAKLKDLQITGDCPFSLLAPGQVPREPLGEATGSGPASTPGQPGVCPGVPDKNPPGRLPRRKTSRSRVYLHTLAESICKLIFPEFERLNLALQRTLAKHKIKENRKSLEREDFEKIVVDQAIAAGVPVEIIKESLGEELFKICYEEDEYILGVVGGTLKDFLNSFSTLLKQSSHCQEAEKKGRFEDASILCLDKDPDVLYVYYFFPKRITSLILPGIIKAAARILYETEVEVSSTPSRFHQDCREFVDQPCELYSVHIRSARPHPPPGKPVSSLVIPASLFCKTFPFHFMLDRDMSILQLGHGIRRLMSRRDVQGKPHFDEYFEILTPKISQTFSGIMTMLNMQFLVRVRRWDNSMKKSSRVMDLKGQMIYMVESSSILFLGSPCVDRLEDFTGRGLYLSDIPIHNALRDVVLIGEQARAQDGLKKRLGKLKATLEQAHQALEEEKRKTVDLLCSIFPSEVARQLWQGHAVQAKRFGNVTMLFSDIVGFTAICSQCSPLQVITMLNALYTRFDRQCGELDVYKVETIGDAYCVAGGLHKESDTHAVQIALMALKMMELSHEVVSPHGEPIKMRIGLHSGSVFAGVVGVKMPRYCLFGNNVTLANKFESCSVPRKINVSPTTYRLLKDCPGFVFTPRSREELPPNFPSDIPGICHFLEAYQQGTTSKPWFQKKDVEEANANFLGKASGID
T1 sequence (P16068 1-619): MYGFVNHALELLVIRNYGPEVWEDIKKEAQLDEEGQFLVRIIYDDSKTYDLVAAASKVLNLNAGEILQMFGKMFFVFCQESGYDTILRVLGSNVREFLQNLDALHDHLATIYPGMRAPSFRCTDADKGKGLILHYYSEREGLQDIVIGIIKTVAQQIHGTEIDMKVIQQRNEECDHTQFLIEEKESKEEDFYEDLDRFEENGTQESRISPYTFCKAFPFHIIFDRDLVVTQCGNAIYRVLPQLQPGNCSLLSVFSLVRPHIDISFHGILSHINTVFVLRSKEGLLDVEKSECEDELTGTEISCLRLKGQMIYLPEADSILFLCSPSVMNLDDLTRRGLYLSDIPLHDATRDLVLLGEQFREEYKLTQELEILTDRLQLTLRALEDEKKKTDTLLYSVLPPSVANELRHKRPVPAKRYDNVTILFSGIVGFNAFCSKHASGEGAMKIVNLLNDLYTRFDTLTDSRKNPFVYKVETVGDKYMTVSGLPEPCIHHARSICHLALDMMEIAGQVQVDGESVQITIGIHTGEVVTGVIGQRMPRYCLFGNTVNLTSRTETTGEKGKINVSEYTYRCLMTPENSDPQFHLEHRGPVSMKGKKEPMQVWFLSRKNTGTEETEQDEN
Description: The activity of sGC purified from bovine lung was determined as formation of [^32P]cGMP from [α-^32P]GTP. The purified enzyme (50 ng) was incubated at 37°C for 10 min in a final volume of 0.1 ml in the absence or presence of flavorings with the NO donor DEA/NO at concentrations indicated in the figure legends, followed by isolation of [^32P]cGMP and quantification of radioactivity (Cerenkov radiation) in a β counter.
To test for reversibility of inhibition, sGC (50 ng) was preincubated in the absence or presence of the respective compounds for 5 minutes at 37°C, followed by 50-fold dilution in the assay mixtures and incubation with DEA/NO at 37°C for 10 minutes.

endothelial cells [3] = test: MTT to formazan conversion (viability); format: cell-based, porcine; settings: 1 mM, 60 minutes
Description: The viability of endothelial cells was judged by incubation with 1 mM of the flavoring compounds, followed by determination of 3-(4,5-dimethyl-2-thiazolyl)-2,5-diphenyltetrazolium bromide (MTT) to formazan conversion using the Cayman MTT Cell Proliferation Assay Kit purchased through VWR International (Vienna, Austria).

rat aortic rings [4] = test: Effect of flavorings on vascular tone of U-46619 precontracted aortic rings; settings: 95% CI; for EC50: Rattus norvegicus
Description: Unsexed Sprague-Dawley rats (obtained from Charles River, Sulzfeld, Germany) were housed at the local animal facility in approved cages. […] Animals were euthanized in a box that was gradually filled with CO2 until vital signs had ceased (cessation of respiration and circulation). Subsequently, the thorax of the animals was opened, the thoracic aorta was removed, cleaned from connective tissue and immediately used for assessment of vessel function.
After equilibration for 60 min at the optimal resting tension of 20 mN, maximal contractile activity was determined with a depolarizing solution containing 60 mM K^+. […] When contraction had reached a stable plateau (~after 20 min) cumulative concentration-response curves were established with flavorings. Where indicated, the effects of the flavorings on vascular tone were tested in the presence of the NOS inhibitor N^G-nitro-L-arginine methyl ester (L-NAME, 0.2 mM).
Concentration-response curves of different ring segments from a single animal were averaged and counted as an individual experiment.

[5] = system: endothelium-denuded rat aortic rings; test: cAMP and cGMP levels in endothelium-denuded aortic rings; settings: 10 µM
Source text: 1 S4 Table. […]
2 endothelium-denuded rat aortic rings.
Flavoring (fmol x mg-1) (fmol x mg-1)
4 En d o th e liu m-denuded rings, treated with test compounds as described in the
5 Materials and methods section of the main text, were freeze-clamped when maximal
6 relaxation had been reached. Rings were homogenized in 5% trichloroacetic acid
7 and analyzed for cAMP and cGMP by radioimmunoassay. Forskolin and DEA/NO
8 were used to induce maximal accumulation of cAMP and cGMP, respectively. Data
9 shown are mean values±SEM of 3 (forskolin and DEA/NO) or 6 (basal,
10 cinnamaldehyde and eugenol) rings; n.d., not determined, *p<0.05 vs. basal (ANOVA
11 and Dunnett's post hoc test).

[6] = Electrochemical determination of NO released from DEA/NO (NO scavenging); settings: DEA/NO 1 μM
Description: Scavenging of NO by flavoring compounds was studied with a nitric oxide sensor (ISO-NOP, World Precision Instruments, Berlin, Germany), calibrated with acidified nitrite as described previously. Free NO radical was generated by incubation of DEA/NO (1 μM) in 1 ml of 100 mM phosphate buffer, pH 7.4, in the absence or presence of superoxide dismutase (2500 U/ml) at ambient temperature. At the peak concentration of NO, flavoring compounds (10 μl of DSMO stock solutions) were added, DMSO served as vehicle control.

rat aortic rings [7] = test: Relaxation of U-46619 precontracted aortic rings to acetylcholine; settings: vehicle, no flavoring, 95% CI, read-out: EC50 of vascular relaxation to acetylcholine
Description: Animal experiments were performed in compliance with the Austrian law on experimentation with laboratory animals (last amendment 2013) based on the European Union guidelines for the Care and the Use of Laboratory Animals (European Union Directive 2010/63/EU). Unsexed Sprague-Dawley rats (obtained from Charles River, Sulzfeld, Germany) were housed at the local animal facility in approved cages. They were fed standard chow (Altromin 3023; obtained from Königshofer Futtermittel, Ebergassing, Austria) and received water ad libitum. Animals were euthanized in a box that was gradually filled with CO2 until vital signs had ceased (cessation of respiration and circulation). […]
For isometric tension measurements, vessel rings with intact endothelium were suspended in 5-ml organ baths containing oxygenated Krebs-Henseleit buffer (concentrations in mM: NaCl 118.4, NaHCO3 25, KCl 4.7, KH2PO4 1.2, CaCl2 2.5, MgCl2 1.2, D-Glucose 11; pH 7.4), as previously described in detail. After equilibration for 60 min at the optimal resting tension of 20 mN, maximal contractile activity was determined with a depolarizing solution containing 60 mM K^+. […]
Effects are expressed as percent of relaxation of U-46619-induced contraction. Concentration-response curves of different ring segments from a single animal were averaged and counted as an individual experiment.

[8] = system: Porcine aortic endothelial cells (endogenous NO/cGMP pathway); test: A23187 (Ca2+ ionophore)-induced endothelial cGMP formation; format: cell-based; settings: NNA 0.3 mM
Description: Porcine aortic endothelial cells were isolated as described and cultured at 37°C, 5% CO2 for up to 3 passages in Dulbecco´s modified Eagle´s medium, containing 10% heat-inactivated fetal calf serum (FCS), 100 U/ml penicillin, 0.1 mg/ml streptomycin, and 1.25 μg/ml amphotericin B. Prior to experiments, cells were subcultured into 24-well plates (determination of cGMP formation) or 6-well plates (determination of L-citrulline formation).
Accumulation of intracellular 3',5'-cyclic GMP (cGMP) was determined as previously described. Briefly, endothelial cells were washed and preincubated with the compounds to be tested for 15 minutes at 37°C in 50 mM Tris buffer, pH 7.4, containing 100 mM NaCl, 5 mM KCl, 1 mM MgCl2, 2.5 mM CaCl2, 1 mM 3-isobutyl-1-methylxanthine, and 1 μM indomethacin. Reactions were started by addition of the Ca^2+ ionophore A 23187 (final concentration 1 μM) or the NO donor DEA/NO (final concentration 1 μM) and terminated after 4 minutes by removal of the incubation medium and addition of 0.01 M HCl. Within 1 h, intracellular cGMP was completely released into the supernatant and measured by radioimmunoassay.

[9] = rats, after intravenous cinnamaldehyde; cited from earlier work
[10] = absence of L-NAME, read-out: EC50 of relaxation of pre-contracted vessels (Control)
[11] = presence of L-NAME 0.2 mM, read-out: EC50 of relaxation of pre-contracted vessels (L-NAME)

SMILES	LDH release (% of maximum) (endothelial cells [1])	Emax of DEA/NO-stimulated sGC activity in presence of flavoring [2] [µmol cGMP x min-1 x mg-1]	Formazan formation (% of control) (endothelial cells [3])	EC50 (rat aortic rings [4]; [10]) [µM]	EC50 (rat aortic rings [4]; [11]) [µM]	other results
CC(=O)c1ccccn1 [Acetylpyridine, 1-(Pyridin-2-yl)ethan-1-one]	0.7±0.12 % of maximum	28±0.8	102±4.4 % of control	3700	5600	
COc1cc(C=O)ccc1O [Vanillin, 4-Hydroxy-3-methoxybenzaldehyde]	1.4±0.72 % of maximum	25±0.6	109±6.7 % of control	1700	1800	
CC1CCC(C(C)C)C(O)C1 (stereo not drawn) [Menthol, 5-Methyl-2-(propan-2-yl)cyclohexan-1-ol]	0.8±0.03 % of maximum	28±0.4	100±2.9 % of control	1600	1400	
O=Cc1ccccc1 [Benzaldehyde, benzaldehyde]				2200	2500	
Cc1cnc(C)cn1 [Dimethylpyrazine, 2,5-Dimethylpyrazine]	0.9±0.12 % of maximum	27±0.7	103±3.7 % of control	4200	5200	
C=C[C@@]1(C)CC(=O)[C@]2(O)[C@@]3(C)[C@@H](O)CCC(C)(C)[C@@H]3[C@H](O)[C@H](OC(C)=O)[C@@]2(C)O1 [Forskolin, reference compound]						cAMP [5]: 9309±488 fmol x mg-1
CC12CCC(CC1)C(C)(C)O2 [Eucalyptol, 1,3,3-Trimethyl-2-oxabicyclo[2.2.2]octane]	1.0±0.27 % of maximum		99±2.0 % of control			EC50 of relaxation of pre-contracted vessels (Control) (rat aortic rings [4]; absence of L-NAME): no effects below 10 mM
CC(=O)C(C)=O [Diacetyl, Butane-2,3-dione]	0.6±0.03 % of maximum		95±4.6 % of control			IC50 ([2]; DEA/NO 0.05 μM, 95% CI): 290 µM; Effect on recorded NO signal (NO scavenging) ([6]; 1 mM): only moderate effects; Effect on recorded NO signal (NO scavenging) ([6]; 10 mM): pronounced decrease; EC50 of relaxation of pre-contracted vessels (Control) (rat aortic rings [4]; absence of L-NAME): no effects below 10 mM
CC(=O)OCC[N+](C)(C)C [acetylcholine]						EC50 (rat aortic rings [7]): 0.055 µM
CC(=O)OCCC(C)C [Isoamylacetate, 3-Methylbutyl acetate]	0.7±0.28 % of maximum	28±0.7	103±3.8 % of control			EC50 of relaxation of pre-contracted vessels (Control) (rat aortic rings [4]; absence of L-NAME): no effects below 10 mM
N=C(NCCC[C@H](N)C(=O)O)N[N+](=O)[O-] [NNA, N^G-nitro-L-arginine, reference compound]						Effect on A23187-induced cGMP accumulation [8]: completely inhibited
O=C(O)/C=C/c1ccccc1 [cinnamic acid]						Biological half-life [9]: about 7 minutes
